We go through 27 compounds from patent publication US10160747B2, “Compounds and methods for kinase modulation, and indications therefor” (Plexxikon Inc., priority 2016, dated 2018).

Experiment [1] concerns MOLM-14 F691L (endogenous FLT3 ITD and transfected FLT3 F691L). Briefly: MOLM-14 F691L cell proliferation assay (CellTiter-Glo). Particulars: Homo sapiens, MOLM-14, 72 h; 3 d growth, GMean. The experiment is classed as cell-based. An outline of the steps: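 MOLM-14 cells (FLT3 ITD) carrying D835Y or F691L, 1×10^4 cells/well, eight 1:3 dilutions from 1 μM final, 0.2% DMSO, 3 days at 37 °C, 5% CO2. Viability by CellTiter-Glo luminescence (ATP content); IC50 from concentration-response.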
(ATP-based viability assays read luminescence as a measure of living cells.)

The target of the next experiment is T1, c-KIT (Homo sapiens, UniProt P10721).
T1 construct: purchased Millipore 14-559K
T1 sequence (P10721 26-976): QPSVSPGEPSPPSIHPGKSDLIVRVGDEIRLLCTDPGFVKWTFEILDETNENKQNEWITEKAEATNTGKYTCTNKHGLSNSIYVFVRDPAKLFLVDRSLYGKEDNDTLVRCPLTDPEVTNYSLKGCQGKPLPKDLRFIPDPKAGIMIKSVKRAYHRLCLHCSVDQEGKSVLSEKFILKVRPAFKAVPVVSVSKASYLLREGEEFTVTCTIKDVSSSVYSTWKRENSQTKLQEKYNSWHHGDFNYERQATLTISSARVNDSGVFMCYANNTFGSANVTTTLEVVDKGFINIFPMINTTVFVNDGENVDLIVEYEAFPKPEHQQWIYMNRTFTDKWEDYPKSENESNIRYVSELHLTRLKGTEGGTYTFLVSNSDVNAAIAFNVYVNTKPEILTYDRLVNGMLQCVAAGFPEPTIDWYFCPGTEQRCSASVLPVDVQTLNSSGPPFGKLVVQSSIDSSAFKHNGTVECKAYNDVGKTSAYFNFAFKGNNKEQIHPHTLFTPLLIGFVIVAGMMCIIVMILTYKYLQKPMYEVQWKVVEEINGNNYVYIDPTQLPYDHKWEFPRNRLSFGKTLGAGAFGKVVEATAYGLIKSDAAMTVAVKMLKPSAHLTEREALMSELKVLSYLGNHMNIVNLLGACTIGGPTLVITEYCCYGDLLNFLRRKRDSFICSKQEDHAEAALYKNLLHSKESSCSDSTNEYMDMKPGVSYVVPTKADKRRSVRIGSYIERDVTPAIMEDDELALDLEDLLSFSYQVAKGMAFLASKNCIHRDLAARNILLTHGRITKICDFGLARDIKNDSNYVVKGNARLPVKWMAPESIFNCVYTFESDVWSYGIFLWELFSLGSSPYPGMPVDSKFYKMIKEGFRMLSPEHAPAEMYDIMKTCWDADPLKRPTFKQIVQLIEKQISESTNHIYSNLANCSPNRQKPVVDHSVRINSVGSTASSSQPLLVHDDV
The experiment is described as follows: c-KIT recombinant enzyme kinase assay (AlphaScreen). Particulars: 100 ATP, 8 pt. The experiment is classed as biochemical. An outline of the steps:
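Recombinant enzyme phosphorylated biotinylated poly(Glu4-Tyr) peptide (30 nM final) with ATP at 10 μM for FLT3-ITD and FLT3-D835Y or 100 μM for c-KIT. Phosphopeptide was detected by AlphaScreen with streptavidin donor and anti-phosphotyrosine (PY20) acceptor beads (10 μg/mL), read at 580 nm, for IC50 determination.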

What is called IC50 is the concentration that inhibits the measured activity by half.

As to `Cn1cnc(Nc2ncc(-c3ccc(CC(=O)Nc4cc(C(C)(F)F)ccn4)cc3)cn2)c1` [Compound P-0169, N-[4-(1,1-difluoroethyl)-2-pyridyl]-2-[4-[2-[(1-methylimidazol-4-yl)amino]pyrimidin-5-yl]phenyl]acetamide], the IC50 (in experiment [1]; on c-KIT) was 0.0001 to 10 µM throughout.
In the case of `Cn1cc(Nc2ncc(-c3ccc(CC(=O)Nc4cnc(Cl)c(C(F)(F)F)c4)c(F)c3)cn2)cn1` [Compound P-0092, N-[6-chloro-5-(trifluoromethyl)-3-pyridyl]-2-[2-fluoro-4-[2-[(1-methylpyrazol-4-yl)amino]pyrimidin-5-yl]phenyl]acetamide], the IC50 (in experiment [1]; on c-KIT) was 0.0001 to 10 µM each time.
As to `Cn1cc(Nc2ncc(-c3ccc(CC(=O)Nc4cccnc4)cc3)cn2)cn1` [Compound P-0131, 2-[4-[2-[(1-methylpyrazol-4-yl)amino]pyrimidin-5-yl]phenyl]-N-(3-pyridyl)acetamide], the IC50 (in experiment [1]; at c-KIT) was 0.0001 to 10 µM throughout.
In the case of `O=C(Cc1ccc(-c2cnc3[nH]c(-c4ccc(N5CCOCC5)nc4)cc3c2)cn1)Nc1ccnc(C(F)(F)F)c1` [Compound P-0183, 2-[5-[2-(6-morpholino-3-pyridyl)-1H-pyrrolo[2,3-b]pyridin-5-yl]-2-pyridyl]-N-[2-(trifluoromethyl)-4-pyridyl]acetamide], the IC50 (in experiment [1]; on c-KIT) was 0.0001 to 10 µM throughout.
In the case of `COc1ncc(NC(=O)Cc2ccc(-c3cnc(Nc4cn(C)cn4)nc3)cc2F)cc1C(F)(F)F` [Compound P-0101, 2-[2-fluoro-4-[2-[(1-methylimidazol-4-yl)amino]pyrimidin-5-yl]phenyl]-N-[6-methoxy-5-(trifluoromethyl)-3-pyridyl]acetamide], the IC50 (in experiment [1]; at c-KIT) was 0.0001 to 10 µM in each case.
In the case of `N#Cc1cc(-c2cc3cc(-c4ccc(CC(=O)Nc5cncc(C(F)(F)F)c5)cc4F)cnc3[nH]2)ccn1` [Compound P-0199, 2-[4-[2-(2-cyano-4-pyridyl)-1H-pyrrolo[2,3-b]pyridin-5-yl]-3-fluoro-phenyl]-N-[5-(trifluoromethyl)-3-pyridyl]acetamide], the IC50 (in experiment [1]; on c-KIT) was 0.0001 to 10 µM in each case.
As for `Cn1cc(Nc2ncc(-c3ccc(CC(=O)Nc4cccc(OC(F)(F)F)c4)cc3)cn2)cn1` [Compound P-0157, 2-[4-[2-[(1-methylpyrazol-4-yl)amino]pyrimidin-5-yl]phenyl]-N-[3-(trifluoromethoxy)phenyl]acetamide], the IC50 (in experiment [1]; on c-KIT) was 0.0001 to 10 µM each time.
Consider `Cn1cc(Nc2ncc(-c3ccc(CC(=O)Nc4cccc(C(F)(F)F)n4)cc3)cn2)cn1` [Compound P-0152, 2-[4-[2-[(1-methylpyrazol-4-yl)amino]pyrimidin-5-yl]phenyl]-N-[6-(trifluoromethyl)-2-pyridyl]acetamide], for which the IC50 (in experiment [1]; at c-KIT) was 0.0001 to 10 µM in each case.
Turning to `Cn1cc(Nc2ncc(-c3ccc(CC(=O)Nc4cccc(S(C)(=O)=O)c4)cc3)cn2)cn1` [Compound P-0155, 2-[4-[2-[(1-methylpyrazol-4-yl)amino]pyrimidin-5-yl]phenyl]-N-(3-methylsulfonylphenyl)acetamide], the IC50 (in experiment [1]; on c-KIT) was 0.0001 to 10 µM in each case.
Turning to `COc1ccccc1CNC(=O)Cc1ccc(-c2cnc(Nc3cnn(C)c3)nc2)cc1` [Compound P-0160, N-[(2-methoxyphenyl)methyl]-2-[4-[2-[(1-methylpyrazol-4-yl)amino]pyrimidin-5-yl]phenyl]acetamide], the IC50 (in experiment [1]; at c-KIT) was 0.0001 to 10 µM in each case.
As for `Cn1cc(Nc2ncc(-c3ccc(CC(=O)Nc4cncc(C(F)(F)F)c4)cc3)cn2)cn1` [Compound P-0136, 2-[4-[2-[(1-methylpyrazol-4-yl)amino]pyrimidin-5-yl]phenyl]-N-[5-(trifluoromethyl)-3-pyridyl]acetamide], the IC50 (in experiment [1]; at c-KIT) was 0.0001 to 10 µM throughout.
`Cn1cnc(Nc2ncc(-c3ccc(CC(=O)Nc4cnc(Cl)c(C(F)(F)F)c4)c(F)c3)cn2)c1` [Compound P-0100, N-[6-chloro-5-(trifluoromethyl)-3-pyridyl]-2-[2-fluoro-4-[2-[(1-methylimidazol-4-yl)amino]pyrimidin-5-yl]phenyl]acetamide]: the IC50 (in experiment [1]; at c-KIT) was 0.0001 to 10 µM throughout.
As to `Cc1ncc(NC(=O)Cc2ccc(-c3cnc(Nc4cn(C)cn4)nc3)cc2F)cc1C(F)(F)F` [Compound P-0099, 2-[2-fluoro-4-[2-[(1-methylimidazol-4-yl)amino]pyrimidin-5-yl]phenyl]-N-[6-methyl-5-(trifluoromethyl)-3-pyridyl]acetamide], the IC50 (in experiment [1]; on c-KIT) was 0.0001 to 10 µM each time.
As to `Cn1cc(Nc2ncc(-c3ccc(CC(=O)Nc4ccnc(C(F)(F)F)c4)cc3)cn2)cn1` [Compound P-0134, 2-[4-[2-[(1-methylpyrazol-4-yl)amino]pyrimidin-5-yl]phenyl]-N-[2-(trifluoromethyl)-4-pyridyl]acetamide], the IC50 (in experiment [1]; on c-KIT) was 0.0001 to 10 µM each time.
As to `Cn1cc(Nc2ncc(-c3ccc(CC(=O)Nc4ccc(C(C)(C)C#N)nc4)c(F)c3)cn2)cn1` [Compound P-0108, N-[6-(1-cyano-1-methyl-ethyl)-3-pyridyl]-2-[2-fluoro-4-[2-[(1-methylpyrazol-4-yl)amino]pyrimidin-5-yl]phenyl]acetamide], the IC50 (in experiment [1]; at c-KIT) was 0.0001 to 10 µM each time.
Regarding `Cn1cc(Nc2ncc(-c3ccc(CC(=O)Nc4cc(Cl)c(C5CC5)cn4)c(F)c3)cn2)cn1` [Compound P-0107, N-(4-chloro-5-cyclopropyl-2-pyridyl)-2-[2-fluoro-4-[2-[(1-methylpyrazol-4-yl)amino]pyrimidin-5-yl]phenyl]acetamide], the IC50 (in experiment [1]; on c-KIT) was 0.0001 to 10 µM each time.
Regarding `Cn1cc(Nc2ncc(-c3ccc(CC(=O)Nc4ccc(C(F)(F)F)nc4)cc3)cn2)cn1` [Compound P-0095, 2-[4-[2-[(1-methylpyrazol-4-yl)amino]pyrimidin-5-yl]phenyl]-N-[6-(trifluoromethyl)-3-pyridyl]acetamide], the IC50 (in experiment [1]; at c-KIT) was 0.0001 to 10 µM throughout.
Turning to `Cn1cc(Nc2ncc(-c3ccc(CC(=O)Nc4cc(C(F)(F)F)ncn4)cc3)cn2)cn1` [Compound P-0135, 2-[4-[2-[(1-methylpyrazol-4-yl)amino]pyrimidin-5-yl]phenyl]-N-[6-(trifluoromethyl)pyrimidin-4-yl]acetamide], the IC50 (in experiment [1]; on c-KIT) was 0.0001 to 10 µM in each case.
For the compound `Cc1ncc(NC(=O)Cc2ccc(-c3cnc(Nc4cn(C)cn4)nc3)cc2)cc1C(F)(F)F` [Compound P-0150, 2-[4-[2-[(1-methylimidazol-4-yl)amino]pyrimidin-5-yl]phenyl]-N-[6-methyl-5-(trifluoromethyl)-3-pyridyl]acetamide], the IC50 (in experiment [1]; at c-KIT) was 0.0001 to 10 µM in each case.
For the compound `Cn1cc(Nc2ncc(-c3ccc(CC(=O)Nc4cccc(C(F)(F)F)c4)cc3)cn2)cn1` [Compound P-0141, 2-[4-[2-[(1-methylpyrazol-4-yl)amino]pyrimidin-5-yl]phenyl]-N-[3-(trifluoromethyl)phenyl]acetamide], the IC50 (in experiment [1]; at c-KIT) was 0.0001 to 10 µM each time.
Turning to `O=C(Cc1ccc(-c2cnc3[nH]c(-c4ccccc4)cc3c2)cn1)Nc1ccnc(C(F)(F)F)c1` [Compound P-0005, 2-[5-(2-phenyl-1H-pyrrolo[2,3-b]pyridin-5-yl)-2-pyridyl]-N-[2-(trifluoromethyl)-4-pyridyl]acetamide], the IC50 (in experiment [1]; at c-KIT) was 0.0001 to 10 µM throughout.
In the case of `Cn1cc(Nc2ncc(-c3ccc(CC(=O)NCc4cccnc4)cc3)cn2)cn1` [Compound P-0132, 2-[4-[2-[(1-methylpyrazol-4-yl)amino]pyrimidin-5-yl]phenyl]-N-(3-pyridylmethyl)acetamide], the IC50 (in experiment [1]; on c-KIT) was 0.0001 to 10 µM in each case.
As for `Cn1cc(Nc2ncc(-c3ccc(CC(=O)Nc4cc(C(F)(F)F)ccn4)cc3)cn2)cn1` [Compound P-0139, 2-[4-[2-[(1-methylpyrazol-4-yl)amino]pyrimidin-5-yl]phenyl]-N-[4-(trifluoromethyl)-2-pyridyl]acetamide], the IC50 (in experiment [1]; on c-KIT) was 0.0001 to 10 µM in each case.
Regarding `COc1ncc(NC(=O)Cc2ccc(-c3cnc(Nc4cn(C)cn4)nc3)cc2)cc1C(F)(F)F` [Compound P-0149, N-[6-methoxy-5-(trifluoromethyl)-3-pyridyl]-2-[4-[2-[(1-methylimidazol-4-yl)amino]pyrimidin-5-yl]phenyl]acetamide], the IC50 (in experiment [1]; at c-KIT) was 0.0001 to 10 µM in each case.
Take `COCCn1cc(Nc2ncc(-c3ccc(CC(=O)Nc4cncc(C(F)(F)F)c4)cc3)cn2)cn1` [Compound P-0178, 2-[4-[2-[[1-(2-methoxyethyl)pyrazol-4-yl]amino]pyrimidin-5-yl]phenyl]-N-[5-(trifluoromethyl)-3-pyridyl]acetamide]: the IC50 (in experiment [1]; on c-KIT) was 0.0001 to 10 µM throughout.
Take `Cn1cc(Nc2ncc(-c3ccc(CC(=O)NCc4cncc(C(F)(F)F)c4)cc3)cn2)cn1` [Compound P-0161, 2-[4-[2-[(1-methylpyrazol-4-yl)amino]pyrimidin-5-yl]phenyl]-N-[[5-(trifluoromethyl)-3-pyridyl]methyl]acetamide]: the IC50 (in experiment [1]; on c-KIT) was 0.0001 to 10 µM in each case.
Turning to `CC(C)c1cc(NC(=O)Cc2ccc(-c3cnc(Nc4cnn(C)c4)nc3)cc2F)ccn1` [Compound P-0094, 2-[2-fluoro-4-[2-[(1-methylpyrazol-4-yl)amino]pyrimidin-5-yl]phenyl]-N-(2-isopropyl-4-pyridyl)acetamide], the IC50 (in experiment [1]; at c-KIT) was 0.0001 to 10 µM throughout.
